Legend:
Assay in all cases: relative viability (nuclei count vs DMSO), 5 days (fraction); higher = more cells survive
[1] = compound: COc1cc(-c2nn([C@H]3CC[C@H](N4CCN(C(C)=O)CC4)CC3)c3ncnc(N)c23)ccc1NC(=O)c1cc2ccccc2n1C + CS(=O)(=O)N1CCN(Cc2cc3nc(-c4cccc5[nH]ncc45)nc(N4CCOCC4)c3s2)CC1 [Pictilisib] (partner 1 µM)
Method in brief: (§1)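 Nuclei were stained with Hoechst during a one-step fixation (final 0.05% Triton X-100, 1% formaldehyde, 1 ug/ml Hoechst) carried out 5 days after dosing, then counted on 4× images. The cells, lung cancer lines in 1536-well plates, had been dosed by pin tool the day after seeding with one drug alone or a fixed anchor-drug dose plus five library-drug doses (not always all listed) in √10 steps. Relative viability is the nuclei count in treated wells divided by that in vehicle wells, and each value is the median of duplicate plates.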

[2] = compound: COc1cc(-c2nn([C@H]3CC[C@H](N4CCN(C(C)=O)CC4)CC3)c3ncnc(N)c23)ccc1NC(=O)c1cc2ccccc2n1C + CC1(C)CCC(c2ccc(Cl)cc2)=C(CN2CCN(c3ccc(C(=O)NS(=O)(=O)c4ccc(N[C@H](CCN5CCOCC5)CSc5ccccc5)c(S(=O)(=O)C(F)(F)F)c4)cc3)CC2)C1 [Navitoclax] (partner 0.5 µM)
Method in brief: as §1

[3] = compound: COc1cc(-c2nn([C@H]3CC[C@H](N4CCN(C(C)=O)CC4)CC3)c3ncnc(N)c23)ccc1NC(=O)c1cc2ccccc2n1C + C[C@]1(O)C[C@@H](c2nc(-c3ccc4ccc(-c5ccccc5)nc4c3)c3c(N)nccn32)C1 [Linsitinib] (partner 1 µM)
Method in brief: as §1

Midostaurin + Vorinostat = compound: CO[C@@H]1[C@H](N(C)C(=O)c2ccccc2)C[C@H]2O[C@]1(C)n1c3ccccc3c3c4c(c5c6ccccc6n2c5c31)C(=O)NC4 [Midostaurin] + O=C(CCCCCCC(=O)Nc1ccccc1)NO [Vorinostat] (partner 1 µM)
Method in brief: as §1

Midostaurin + OSI-027 = compound: CO[C@@H]1[C@H](N(C)C(=O)c2ccccc2)C[C@H]2O[C@]1(C)n1c3ccccc3c3c4c(c5c6ccccc6n2c5c31)C(=O)NC4 [Midostaurin] + COc1cccc2cc(-c3nc([C@H]4CC[C@H](C(=O)O)CC4)n4ncnc(N)c34)[nH]c12 [OSI-027] (partner 0.5 µM)
Method in brief: as §1

Cell Line	relative viability ([1]; first compound 0.0128 µM)	relative viability ([1]; first compound 0.04048 µM)	relative viability ([1]; first compound 0.128 µM)	relative viability ([1]; first compound 1.28 µM)	relative viability ([2]; first compound 0.0128 µM)	relative viability ([2]; first compound 0.04048 µM)	relative viability ([2]; first compound 0.128 µM)	relative viability ([2]; first compound 1.28 µM)	relative viability ([3]; first compound 0.0128 µM)	relative viability ([3]; first compound 0.04048 µM)	relative viability ([3]; first compound 0.128 µM)	relative viability ([3]; first compound 1.28 µM)	relative viability (Midostaurin + Vorinostat; first compound 0.01 µM)	relative viability (Midostaurin + Vorinostat; first compound 0.03162 µM)	relative viability (Midostaurin + Vorinostat; first compound 0.1 µM)	relative viability (Midostaurin + Vorinostat; first compound 0.3162 µM)	relative viability (Midostaurin + OSI-027; first compound 0.01 µM)	relative viability (Midostaurin + OSI-027; first compound 0.03162 µM)	relative viability (Midostaurin + OSI-027; first compound 0.1 µM)	relative viability (Midostaurin + OSI-027; first compound 0.3162 µM)
Calu-6	0.916	0.893	0.826	0.76	0.881	0.983	0.817	0.722	0.901	0.657	0.858	0.785	–	–	–	–	–	–	–	–
ChaGo-K-1	0.66	0.669	0.587	0.644	0.958	1.05	0.881	0.986	–	–	–	–	0.746	0.811	0.619	0.714	0.645	0.737	0.671	0.599
EBC-1	0.407	0.447	0.416	0.393	0.422	0.501	0.422	0.339	0.77	0.959	0.898	0.896	–	–	–	–	–	–	–	–
EKVX	0.458	0.475	0.401	0.245	1.05	1.03	0.957	0.384	1.2	1.12	0.918	0.499	0.735	0.714	0.808	0.583	0.786	0.616	0.674	0.657
EMC-BAC-2	0.547	0.501	0.504	0.494	1.19	1.08	1.15	1.05	0.869	0.806	0.815	0.521	0.415	0.437	0.407	0.476	0.346	0.31	0.336	0.218
EPLC-272H	0.369	0.258	0.29	0.311	1.13	1.05	0.983	0.871	1.45	1.21	0.878	1.04	0.47	0.436	0.426	0.393	0.301	–	0.289	0.305
H3255	0.523	0.408	0.49	0.278	0.398	0.441	0.466	0.259	1.04	0.935	0.887	0.663	0.86	0.615	0.765	0.744	0.592	0.512	0.622	0.593
HARA	0.454	0.395	0.349	0.362	1.14	1.24	1.14	1	1	0.873	0.891	0.62	0.482	0.603	0.466	0.505	0.672	0.4	0.516	0.757
HCC-15	0.854	0.369	0.657	0.647	0.755	0.59	0.672	0.454	0.922	0.807	0.815	0.662	0.942	0.806	0.785	0.765	0.758	0.624	0.698	0.717

— the supplement of paper PMC10307832
